Earlier results, collected in patent US20050266098A1, “Composition for treatment of a hydrofluoric acid burn” (priority 2004, published 2005).

How the values were obtained:
[1] = tested on: hydrofluoric acid injury; details: soaks as source of calcium ions
[2] = 18° C.

In the case of CC(=O)[O-].CC(=O)[O-].[Ca+2] [Calcium acetate], the “epidermal response resulting from the treatment” value [1] is given as “negative epidermal response”.
In the case of CC(=O)CCC(=O)O [Levulinic acid], the pKa [2] is given as 4.64 and the pH ([2]; 98% aqueous solution) is given as 6.2.
